Measured values reported in patent US12396949B2, “Technology for improving properties of lipid nanoparticles using lipids in which cis-unsaturated bonds are substituted with a silicon atom” (The Regents of the University of California, priority 2022, dated 2025).
“And” between values parts separate entries of the source, which are not always exact repeats. Equal values may be shown once.

Key:
[1] = Average size of liposomes made from cationic silyl lipids (Tables 1A, 1B); type: physicochemical; details: Table 1A; liposome formulations of the cationic silyl lipid only in Milli Q purified water
Description: (§1) For colloidal dispersions, zeta potential is a useful measurement of the difference in electrokinetic potential between the dispersion medium and the stationary layer of fluid attached to the dispersed particle. The magnitude of the zeta potential indicates the degree of electrostatic repulsion between adjacent, similarly charged particles in a dispersion. A high zeta potential is an indicator of stability (resistance to aggregation). Both zeta potential and size can be determined using a zeta Potential Analyzer. Clogston J D et al., Methods Mol Biol. 2011; 697:63-70.
(§2) FIGS. 5A to 5C and TABLE 1A provide an illustration of such empirical determination: the effect of the length of the lipid tail, the end group, and the positioning of the silyl group. In this illustration, other properties of the lipid structure and liposome composition were kept constant. The liposome formulations just contained the cationic silyl lipids indicated, and Milli Q™ purified water.
(§3) FIGS. 7A to 7C and TABLE 1B provide another illustration of how structure of the silyl lipid can affect properties of nanoparticles.
(§4) Structural features such as tail length, positioning of the silicon group (n1, n2), and branching (as in 8,Si, (8)3-DOTMA) can influence liposome properties.

[2] = Average zeta potential of liposomes made from cationic silyl lipids (Tables 1A, 1B); type: physicochemical; details: Table 1A; liposome formulations of the cationic silyl lipid only in Milli Q purified water
Description: as §1, §2, §3, §4

Structure (SMILES) | Avg. Size [1] | Avg. zeta Potential [2]
C[N+](C)(C)CC(COC(=O)CCCC[Si](C)(C)c1ccccc1)OC(=O)CCCC[Si](C)(C)c1ccccc1 (centres unmarked) [QP5SiPh] | 80 nm | 62 mV
CCCCCCCCC[Si](C)(C)CCCCCCC(=O)OCC(C[N+](C)(C)C)OC(=O)CCCCCC[Si](C)(C)CCCCCCCCC (centres unmarked) [QP7Si9] | 59 nm | 74 mV
C[N+](C)(C)CC(COC(=O)CCCCCCC[Si](C)(C)C1CCCCC1)OC(=O)CCCCCCC[Si](C)(C)C1CCCCC1 (centres unmarked) [QP8SiCy] | 29 nm | 57 mV and 71 mV
C[N+](C)(C)CC(COC(=O)CCCCCCC[Si](C)(C)c1ccccc1)OC(=O)CCCCCCC[Si](C)(C)c1ccccc1 (centres unmarked) [QP8SiPh] | 21 nm | 59 mV and 73 mV

Now from value to compound:

Avg. Size [1] | Avg. zeta Potential [2] | Structure (SMILES)
24 nm | 33 mV and 44 mV | CCCC[Si](C)(C)CCCCCCCC(=O)OCC(C[N+](C)(C)C)OC(=O)CCCCCCC[Si](C)(C)CCCC (centres unmarked) [QP8Si4]
38 nm | 62 mV | CCCCCC[Si](C)(C)CCCCCCCC(=O)OCC(C[N+](C)(C)C)OC(=O)CCCCCCC[Si](C)(C)CCCCCC (centres unmarked) [QP8Si6]
38 nm | 67 mV | CCCCCCCC[Si](C)(C)CCCCCCCC(=O)OCC(C[N+](C)(C)C)OC(=O)CCCCCCC[Si](C)(C)CCCCCCCC (centres unmarked) [QP8Si8]
